The values below are quoted from earlier work in patent US20140370149A1, “METHODS FOR USING REBAUDIOSIDE C AS A FLAVOR ENHANCER” (International Flavors & Fragrances Inc., priority 2011, published 2014).

The conditions of the series: sweetness relative to sucrose.

Turning to `C=C1C[C@@]23CC[C@H]4[C@@](C)(CCC[C@@]4(C)C(=O)O[C@@H]4O[C@H](CO)[C@@H](O)[C@H](O)[C@H]4O)[C@@H]2CC[C@]1(O[C@@H]1O[C@H](CO)[C@@H](O)[C@H](O)[C@H]1O[C@@H]1O[C@@H](C)[C@H](O)[C@@H](O)[C@H]1O)C3` [dulcoside A], the “times sweeter than sucrose” value is 30 times.
